# Numbered stars: 1 amine (or outer) side, 2 acyl side, 3 side chain; on linkers, the order of the positions; unused ones are H or OH. Square brackets hold non-standard residues; d marks the D form. Peptide text beside a SMILES is read from it. ξ: configuration not given here. Gly(N-piperonyl) = O=C(O)CNCc1ccc2c(c1)OCO2; X1 = CC(c1ccccc1)N(CC(=O)[*:2])[*:1]; Nlys = NCCCCNCC(=O)O; ξK = NCCCCC(N)C(=O)O; ξM = CSCCC(N)C(=O)O; Nme = COCCNCC(=O)O
# Experiments:
# Type in all cases: cell-based
# H358 cells [1] = experiment: Clonogenicity assay under treatment; conditions: 500 cells/well, 30 and 100 μM, 2 weeks
# Procedure: To further validate that PCS2D1 inhibiting CSCs, the effects of PCS2D1 against a stem-cell-associated phenotype were studied with regards to the capacity to form colonies from a single cell by using the clonogenicity assay. About 300 cells were plated onto 35 mm cell culture plates with either 0, 1, 10, 30, or 100 μM of PCS2D1, and allowed to grow for 2 weeks. After staining with crystal violet, both the number of colonies and the overall morphology of the colonies were evaluated.
# The clonogenicity assay was repeated with H358 cells, 500 cells/well, using 0, 10, 30 and 100 μM PCS2 treatment over 2 weeks. […] To confirm that this was due to the specific targeting on CSCs, the clonogenicity assay was performed again over 8 days, with the treatment performed from day 7 to 8 instead, to allow the colonies to establish. This was done alongside control cells plated on chamber slides and then grown under the same conditions.
# H358 cells [2] = experiment: Colony formation assay of bead-bound, unbound and unsorted fractions; conditions: 2 weeks of growth, crystal violet
# Procedure: (§1) A colony formation assay was performed on the untreated H358 cells and PCS2-bound and PCS2-unbound fractions to further confirm that the cells bound by PCS2 were CSCs. About 500 cells from each of the three fractions were plated into […] wells and grown for 2 weeks. The resulting colonies were then stained with crystal violet.
# as §1, with “300-500” for “500”, “cell group” for “the three fractions”, “weeks or until colonies were visible by eye.” for “weeks.”, “violet for approximately 5 minutes and colonies were counted using the MOESM software program, and confirmed though microscopic counting.” for “violet.”
# It was determined that the presence of plectin contributes to colony formation and wound healing potential of H358 cells. Plectin antibody-coated magnetic-bead bound fractions form a higher number of colonies compared to unbound and unseparated fraction in the clonogenicity assay in H358 cells The clonogenecity after plectin knockdown was then tested in H358, H460, and H2073 cells (FIG. 25C, 25D). Knockdown of plectin decreases colony formation in H358, H460 and H2073 cells. Knockdown of plectin leads to a decrease in mobility and scratch healing in H358 cells. […]
# [3] = test system: lung cancer cell lines (HCC4017, H358, H366, H460, H1299, H2073, H1693, H1993, H1975); experiment: RT-qPCR of CSC markers and PLEC in PCS2-bead bound vs unbound fractions of lung cancer cell lines
# Procedure: Using the same basic approach, peptoid-bound and peptoid-unbound fractions were generated from the lung cancer cells lines HCC4017, H358, H366, H460 for the PCS2 compound, and the relative expression of CSC marker SOX2 was evaluated between each fraction.
# To confirm the binding specificity of PCS2 to CSCs, CSCs isolated from H358 cells and normal mesenchymal stem cells (MSCs) were exposed to PCS2-carrying beads as described in Example 3, and then separated by magnet into peptoid-bound and peptoid-unbound fractions (FIG. 19A). […] To further evaluate PCS2 specificity towards CSCs, HCC4017, H460, H1299, H2073, H1693, H1993, and H1975 cells were exposed to PCS2-carrying beads, and then separated by magnet into peptoid-bound and peptoid-unbound fractions. RNA from both bound and unbound fractions was harvested and analyzed by RT-qPCR to determine the relative expression of several known CSC biomarkers in each fraction was assessed, including expression of ALDH1A3 (FIG. 19B), CD133 (FIG. 19C), CD44 (FIG. 19D), and SOX2 (FIG. 19E). CD44 and SOX2 expressions were high on PCS2-coated magnetic-bead bound fractions from the almost all cell lines having higher expression of CSC biomarkers compared to the unsorted or unbound fractions confirming that the capacity of PCS2 to bind to CSCs is not exclusive to H358 cells. The correlation to ALDH1A3 and CD133 were varied, which is typical due to the high heterogeneity of CSC biomarker expressions, and there are no 100% biomarker correlations exists.
# Plectin expression was directed tested on PCS2-bound cells from H358, HCC4017, H460, H1299, H2073, H1693, H1993, H1975 cells by RT-QPCR (FIG. 22A). […] To determine if PCS2 and the plectin antibody compete for binding, the magnetic-bead binding assay was repeated in the presence of the plectin antibody. […] Since previous reports have shown cells to be sufficiently stable for further assays with plectin knock-down, plectin knockdown was conducted in H358, H1693, H1975 and H1993 cells using siRNA using the magnetic-bead binding assay described above. […] From these observations, it was concluded that plectin is the cell-surface marker that PCS2 is targeting.
# H358 and HCC4017 cells = experiment: ALDEFluor staining of PCS2-bound and PCS2-unbound fractions
# Procedure: To confirm that the peptoid-bound fraction was CSCs, a subset of PCS2-bound and PCS2-unbound fractions from H358 cells were generated and stained with the ALDEFLuor kit, which produces green fluorescence when the ALDH protein is active in a cell, and DAPI, and then analyzed them under a fluorescence microscope. […] An equal number of PCS2-bead sorted cells from the H358 and HCC4017 cell lines were also treated with the Aldefluor kit and their relative fluorescence was evaluated using a spectrophotometer (FIG. 7B & C).
# [4] = HCC4017, H460, H1299, H2073, H1693, H1993, H1975, almost all cell lines
structure (smiles),measurement,setting,value
COCCNCC(=O)N(CCCCN)CC(=O)N(CC(=O)N(CC(=O)N(CCCCN)CC(=O)NC(CCCCN)C(=O)N[C@H](CCCCN)C(=O)NC(CCSC)C(N)=O)C(C)c1ccccc1)Cc1ccc2c(c1)OCO2 (some centres unmarked) [PCS2] (H-[Nme][Nlys][Gly(N-piperonyl)][X1][Nlys][ξK][dK][ξM]-NH2),colonies formed,H358 cells [1],Significantly fewer colonies formed
same,number of colonies from bead-bound fraction vs unbound or unsorted fractions,H358 cells [2],significantly higher number of colonies
same,Plectin expression in PCS2-bound cells vs unbound cells,"[3]; H358, HCC4017, H460, H1299, H2073, H1693, H1993, H1975, RT-QPCR",significantly higher
same,relative expression of SOX2 in PCS2-bead fractions,"[3]; HCC4017, H358, H366, H460, vs unsorted or unbound fractions",increased expression of SOX2
same,CD44 expression in PCS2-coated magnetic-bead bound fractions,[3]; [4],high
same,SOX2 expression in PCS2-coated magnetic-bead bound fractions,[3]; [4],high
same,ALDEFluor green fluorescence of PCS2-bound fraction,"H358 and HCC4017 cells; H358, fluorescence microscope, vs unbound or untreated fractions",significantly stronger green fluorescence
same,relative ALDEFluor fluorescence of PCS2-bead sorted cells,"H358 and HCC4017 cells; H358 and HCC4017, spectrophotometer",fluorescence was higher in bound cells
